Measured values published in patent US6673791B2, “Non-nucleoside reverse transcriptase inhibitors” (Boehringer Ingelheim (Canada) Ltd., priority 2001, dated 2004).
Read-outs that look alike come from different tables or passages of the source.

Experiments:
[1] = target: T1, Y188L mutant RT (HIV-1 RT) (Human immunodeficiency virus type 1 group M subtype B, UniProt P03366, Y787L); experiment: biochemical
T1 construct: mutations that occur in the reverse transcriptase segment of the pol gene
Source text: (§1) Based upon testing of these compounds, as described below, it is known that they inhibit the RNA-dependent DNA polymerase activity of HIV-1 RT. […] Utilising the Reverse Transcriptase (RT) Assay described below, compounds can be tested for their ability to inhibit the RNA-dependent DNA polymerase activity of HIV-1 RT. Certain specific compounds described in the Examples which appear below, were so tested. The results of this testing appear in Table 4 as IC50 (nM) and Table 5 as EC50 (nM).
(§2) Reverse TranscriptASE (RT) Assays
(§3) The assays are as described in WO 01/96338A1, the contents of which are hereby incorporated herein. The results are listed in Tables 8 as IC50(nM) and EC50(nM).

WT RT (HIV-1 RT) = target: T2, WT RT (HIV-1 RT) (Human immunodeficiency virus type 1 group M subtype B, UniProt P03366); experiment: biochemical
T2 construct: mutations that occur in the reverse transcriptase segment of the pol gene
Source text: as §1, §2, §3

[2] = target: T3, V106A mutant RT (HIV-1 RT) (Human immunodeficiency virus type 1 group M subtype B, UniProt P03366, V705A); experiment: biochemical
T3 construct: mutations that occur in the reverse transcriptase segment of the pol gene
Source text: as §1, §2, §3

[3] = target: T4, K103N/Y181C double mutant RT (HIV-1 RT) (Human immunodeficiency virus type 1 group M subtype B, UniProt P03366, K702N/Y780C); experiment: biochemical
T4 construct: mutations that occur in the reverse transcriptase segment of the pol gene
Source text: as §1, §2, §3

[4] = tested on: K103N/Y181C (HIV-1 double mutant strain); experiment: EC50 assay, K103N/Y181C strain; format: cell-based
Source text: as §2, §3

[5] = tested on: WT RT (HIV-1 wild type strain); experiment: EC50 assay, WT RT strain; format: cell-based
Source text: as §2, §3

[6] = wild type RT, read-out: IC50 WT RT
[7] = K103N/Y181C double mutant RT, read-out: IC50 K103N/Y181C
[8] = read-out: IC50 K103N/Y181C, K103N/Y181C double mutant RT
[9] = read-out: IC50 WT RT, wild type RT
[10] = Human immunodeficiency virus 1, read-out: EC50 WT RT (nM)

| SMILES | IC50 ([1]; IC50 Y188L (nM)) [nM] | IC50 (WT RT (HIV-1 RT)) [nM] | IC50 ([2]; IC50 V106A (nM)) [nM] | IC50 [3] [nM] | further results |
| --- | --- | --- | --- | --- | --- |
| CCN1c2ncc(CCOc3ccc(CC(C)C(=O)O)c4ccccc34)cc2C(=O)Nc2c(C)ccnc21 (stereo not drawn) [Entry 1046] | > 1000 | < 100 | > 1000 | > 1000 |  |
| CCN1c2ncc(CCOc3ccc(CC(C)C(=O)O)c4ccccc34)cc2C(=O)Nc2c(C)cc(Cl)nc21 (stereo not drawn) [Entry 1047] | > 1000 | < 100 | 100 to 1000 | 100 to 1000 |  |
| CCN1c2ncc(CCOc3ccc(NS(C)(=O)=O)c4ccccc34)cc2C(=O)N(C)c2cccnc21 [Entry 2003] | > 1000 | < 100 | > 1000 | 100 to 1000 | EC50 ([4]; Human immunodeficiency virus 1, read-out: EC50 K103N/Y181C (nM), K103N/Y181C double mutant): < 100 nM |
| CCN1c2ncc(CCOc3cccc4c(S(N)(=O)=O)cccc34)cc2C(=O)N(C)c2cccnc21 [Entry 2004] | 100 to 1000 | < 100 | 100 to 1000 | < 100 |  |
| CCN1c2ncc(CCOc3ccc(S(=O)(=O)NC(C)=O)c4ccccc34)cc2C(=O)N(C)c2cccnc21 [Entry 2005] |  |  |  |  | IC50 ([1]; read-out: IC50 Y188L): > 1000 nM; IC50 (WT RT (HIV-1 RT); [6]): < 100 nM; IC50 ([2]; read-out: IC50 V106A): > 1000 nM; IC50 [3, 7]: 100 to 1000 nM |
| CCN1c2ncc(CCOc3ccc(NC(=O)CC(C)(C)C(=O)O)c4ccccc34)cc2C(=O)N(C)c2cccnc21 [Entry 2007] |  |  |  |  | IC50 ([1]; read-out: IC50 Y188L): > 1000 nM; IC50 (WT RT (HIV-1 RT); [6]): < 100 nM; IC50 ([2]; read-out: IC50 V106A): > 1000 nM; IC50 [3, 7]: 100 to 1000 nM |
| CCN1c2ncc(CCOc3ccc(C(=O)O)c4ccccc34)cc2C(=O)N(C)c2cccnc21 [Entry 2010] | > 1000 | < 100 | > 1000 | 100 to 1000 |  |
| CCN1c2ncc(CCOc3ccc(CCC(=O)O)c4ccccc34)cc2C(=O)N(C)c2cccnc21 [Entry 2011] |  |  |  |  | EC50 ([5]; wild type, read-out: EC50 WT RT): < 100 nM; EC50 ([4]; K103N/Y181C double mutant, read-out: EC50 K103N/Y181C): 100 to 1000 nM; IC50 ([1]; read-out: IC50 Y188L): > 1000 nM; IC50 ([2]; read-out: IC50 V106A): > 1000 nM; IC50 [3, 7]: 100 to 1000 nM |
| CCN1c2ncc(CCOc3ccc(CC(=O)NS(C)(=O)=O)c4ccccc34)cc2C(=O)N(C)c2cccnc21 [Entry 2012] |  |  |  |  | IC50 ([1]; read-out: IC50 Y188L): > 1000 nM; IC50 (WT RT (HIV-1 RT); [6]): < 100 nM; IC50 ([2]; read-out: IC50 V106A): > 1000 nM; IC50 [3, 7]: > 1000 nM |
| CCN1c2ncc(CCOc3ccc(/C=C/C(=O)O)c4ccccc34)cc2C(=O)N(C)c2cccnc21 [Entry 2013] | > 1000 |  |  |  | IC50 ([2]; read-out: IC50 V106A): > 1000 nM; IC50 [3, 8]: 100 to 1000 nM |
| CCN1c2ncc(CCOc3ccc(/C=C/C(=O)O)c4ccccc34)cc2C(=O)Nc2c(C)cc(F)nc21 [Entry 2015] |  |  | 100 to 1000 |  | IC50 ([1]; read-out: IC50 Y188L): > 1000 nM; IC50 (WT RT (HIV-1 RT); [9]): < 100 nM; IC50 [3, 8]: 100 to 1000 nM |
| CCN1c2ncc(CCOc3ccc(/C=C/C(=O)O)c4ccccc34)cc2C(=O)N(C)c2ccc(C)nc21 [Entry 2017] | > 1000 |  | > 1000 |  | IC50 (WT RT (HIV-1 RT); [9]): < 100 nM; IC50 [3, 8]: 100 to 1000 nM |
| CCN1c2ncc(CCOc3ccc(CC(C)C(=O)O)c4ccccc34)cc2C(=O)N(C)c2cccnc21 (stereo not drawn) [Entry 2021] |  |  |  |  | IC50 (WT RT (HIV-1 RT); [6]): 100 to 1000 nM |
| CCN1c2ncc(CCOc3ccc4cc(C(=O)O)ccc4c3)cc2C(=O)N(C)c2cccnc21 [Entry 3001] | > 1000 | < 100 | 100 to 1000 | 100 to 1000 |  |
| CCN1c2ncc(CCOc3ccc4cc(CC(=O)O)ccc4c3)cc2C(=O)N(C)c2cccnc21 [Entry 3004] | > 1000 | < 100 | 100 to 1000 | > 1000 |  |
| CCN1c2ncc(CCOc3ccc(CC(=O)O)c4c3CCCC4)cc2C(=O)N(C)c2cccnc21 [Entry 5006] | > 1000 | < 100 | > 1000 | 100 to 1000 |  |
| CCN1c2ncc(CCOc3cccc4c3CCCN4CC(=O)O)cc2C(=O)N(C)c2cccnc21 [Entry 6001] | > 1000 | < 100 | > 1000 | > 1000 | EC50 [5, 10]: 100 to 1000 nM |
| CCN1c2ncc(CCOc3cccc4c3CCCN4C(=O)CC(=O)O)cc2C(=O)N(C)c2cccnc21 [Entry 6002] |  | < 100 |  |  |  |
| CCN1c2ncc(CCOc3ccc(C(=O)O)c4c3CCN(C(C)=O)C4)cc2C(=O)N(C)c2cccnc21 [Entry 7004] | > 1000 | < 100 | > 1000 | 100 to 1000 | EC50 [5, 10]: 100 to 1000 nM |
| CCN1c2ncc(CCOc3ccc(C(=O)O)c4c3CCN(S(C)(=O)=O)C4)cc2C(=O)N(C)c2cccnc21 [Entry 7005] | 100 to 1000 | < 100 | > 1000 | < 100 | EC50 [5, 10]: < 100 nM |
